Where a name gives a salt, the structure may show the parent alone.
What was measured:
[1] = test system: chick embryos; experiment: Early embryonic chick culture: heart development (MF20) after HCy, Li or Wnt3A exposure, FA/inositol rescue; type: in vivo, chick (Gallus gallus); settings: for % Normal Hearts / Abnormal (number of embryos) / Normal (number of embryos): HCy 50 μM, FA 10 μM
Protocol: Pathogen-free White Leghorn chick (Gallus gallus; Charles River, Mass.) and quail (Coturnix coturnix japonica; Strickland Farms, Ga.) embryos were used to analyze the effects of HCy on early embryogenesis. The early processes of heart development are well conserved among vertebrates and the avian model allows for more precise timing of exposure in early embryos. The incubation methodology using agarose-albumin has been described previously (Darnell and Schoenwolf, 2000). Briefly, the experimental paradigm involved exposing specific early stages of chick embryos, at HH stages 4 to 7 (Hamburger and Hamilton, 1951), to different concentrations of HCy (L-homocysteine thiolactone hydrochloride, Sigma) made up in physiological saline. Final concentrations of HCy included 30 μM, 50 μM, 75 μM and 100 μM. The minimal teratogenic dose was determined empirically to be 50 μM. This fit within the concentration range of 30 μM to 300 μM used by others that induced heart defects at later stages of development (Boot et al., 2004). Control embryos were incubated using the vehicle, physiological saline, in the agarose-albumin medium. Control and experimental cultures were incubated on the agarose-albumin plates for either 8 or 24 hours.
Carrier-free, recombinant mouse Wnt3A was purchased from R&D Systems (Minneapolis, Minn.). Wnt3A concentrations were empirically tested to find those that would induce cardiac defects but maintain embryonic viability. Wnt3A was tested at concentrations of 2 ng, 10 ng, 20 ng, 50 ng and 100 ng per ml. Concentrations of 2 ng/ml and 10 ng/ml were both effective in inducing cardiac defects. Both Wnt3A concentrations were used in the FA rescue experiments, as described. For the FA rescue experiments, folate (folic acid, Sigma-Aldrich) was added at a concentration of 2 μg, 5 μg or 10 μg per ml. […] For the experiments using inositol (myo-inositol, Sigma) supplementation, a concentration of 50 mg/ml was used.
The main embryonic defects related to the timing of embryonic exposure; the regions that were primarily affected related to an anterior-to posterior (AP) wave of development along this embryonic axis. The exposure effects ranged from early effects (e.g. no cardiac tissue, heart development occurring anterior to neural tissue, cardiabifida) to later effects, such as wide hearts and left looping (Table 1). The cardiac phenotypes observed with early HCy exposure were similar, although not identical, to those obtained from previous studies of Li exposure on avian heart development (Manisastry et al., 2006). The Wnt/β-catenin modulated genes Hex and Isl1 in the chick embryo also were similarly repressed with HCy, as with Li in the chick cardiogenic region. […] Investigation of regulatory gene activity in chick embryos indicates Li, HCy and Wnt3A suppress Wnt-modulated genes Hex and Islet-1 in the heart fields.
To define the effective dose of Wnt3A needed to induce cardiac dysmorphogenesis, Wnt3A was tested at concentrations of 2 ng, 10 ng, 20 ng, 50 ng, and 100 ng per ml. The minimal effective doses of Wnt3A that induced cardiac and neural anomalies were 2 ng/ml and 10 ng/ml, respectively. Using these concentrations, the inventors analyzed whether FA supplementation of media at 10^3-fold higher concentrations, that is 2 μg/ml or 10 μg/ml, would provide protection against the augmentation of canonical Wnt3A signaling.

[2] = test system: HTR-8/SVneo cells; experiment: In vitro wound assay of human trophoblast cell migration; type: cell-based; settings: HCy exposure experiments; scrape wound
Description: In previous studies by the inventors analyzing the effects of lithium and the metabolite homocysteine (HCy) on early heart development, the results were similar. Both factors inhibited Wnt/β-catenin-mediated gene expression during induction stages of cardiogenesis. […] Folate protects the embryo from these adverse effects (Han et al., 2009). It was also noted that normal placental development was adversely affected by Li and HCy. A human trophoblast cell line, HTR-8/SVneo cells, was used to determine whether Li or HCy affect the migration of these cells in vitro and whether FA or FA/myo-inositol would protect the cells from adverse effects of the two cardiac teratogens. HCy exposure experiments were conducted. […] The wound edges are depicted by a white line in B. In panel A, it can be seen that the wound area is smaller. Administration of a combination of FA/myo-inositol, FA alone or myo-inositol alone, enhanced the expression of NMHC-IIB and FN to facilitate cell migration.

[3] = seven years after FA fortification; Quebec, Canada; cited from earlier work
[4] = test system: C57BL/6 mouse embryos; experiment: Morphometric measurements, resorptions and lethality of mouse embryos after Li or HCy exposure, FA rescue; type: in vivo; settings: for Resorptions (percent): hydrochloride
Description: To determine whether the results in the avian system would extend to the mammalian system, the inventors conducted studies in the mouse embryo. All mice were maintained according to protocols approved by the Institutional Animal Care and Use Committee at the University of South Florida. The C57BL/6 mouse strain (Jackson Laboratories, Bar Harbor, Me.) was used throughout the study. E0.5 was defined as the morning when the vaginal sperm plug was detected. Timed pregnant mice were randomly allocated to receive a single dose of 100 μl of 6.25 mg/ml Li chloride, as determined previously (Chen et al., 2008), 100 μl of 75 μM HCy, or 100 μl of 6.25 mg/ml sodium chloride (control group); all treatments were given intraperitoneally (i.p). On E15.5, the utero-placental circulation of the pregnant mice, and the central and peripheral circulations of the embryos were examined non-invasively in utero using Doppler ultrasonography (Gui et al., 1996; Linask and Huhta, 2000). Sixty-eight embryos were exposed to Li, 59 to HCy and 42 to physiological saline.
An HCy concentration of 75 μM, used for maternal exposure, was determined empirically using different doses of HCy (i.e. 150, 75, 50 and 15 μM). The minimal teratogenic dose was determined to be 75 μM. […] The single i.p. injection of HCy at E6.75 produced a high number of valve defects (66%), as well as resorptions (46%). […] Because not all embryos within litters are at exactly the same stage of development, the variability of effects seen with either Li or HCy probably reflects the differences in developmental stage.
Following echo monitoring on E15.5, placental weight and morphometric measurements of crown-rump length and body weight were obtained. […] HCy administered on E6.75 induced valve defects in 66.1% of the embryos (39/59 embryos). Some litters were allowed to develop to E18.5.

[5] = HH stage 3 +/4, Li 50 μM, inositol 280 mM
[6] = 50 μM HCy, early embryonic chick model
[7] = White Leghorn, chick, in vivo, 50 μM

Nc1nc2ncc(CNc3ccc(C(=O)N[C@@H](CCC(=O)O)C(=O)O)cc3)nc2c(=O)[nH]1 [FA, folic acid]
% Normal Hearts [1, 5]: 55% | Abnormal (number of embryos) [1, 5]: 5 | Normal (number of embryos) [1, 5]: 6 | % Normal Hearts ([1]; HH stage 3 +/4, Li 50 μM, inositol 280 mM, listed as FA only): 55% | heart development (MF20) ([1]; in vivo): normal heart development | expression of NMHC-IIB and FN [2]: enhanced | yearly decrease in the prevalence of severe heart defects [3]: 6%

N[C@H]1CCSC1=O [HCy, L-homocysteine thiolactone hydrochloride]
Dead, Frequency [1, 6]: 6 | Dead, Percent [1, 6]: 5.6% | Abnormal (number of embryos) [1, 5]: 100 | Normal (number of embryos) [1, 5]: 28 | % Normal Hearts ([1]; HH stage 3 +/4, Li 50 μM, inositol 280 mM, hydrochloride): 22% | Abnormal (number of embryos) ([1]; HH stage 5): 50 | Normal (number of embryos) ([1]; HH stage 5): 24 | % Normal Hearts ([1]; HH stage 5, hydrochloride): 32% | minimal teratogenic dose ([1]; White Leghorn, chick, in vivo): 50 µM | Cardiabificla, Frequency [1, 7]: 11 | Cardiabificla, Percent [1, 7]: 10.2% | Delayed development, Frequency [1, 7]: 2 | Delayed development, Percent [1, 7]: 1.9% | Heart above head, Frequency [1, 7]: 18 | Heart above head, Percent [1, 7]: 16.7% | Heart close midline, Frequency [1, 7]: 15 | Heart close midline, Percent [1, 7]: 13.9% | Left looping, Frequency [1, 7]: 11 | Left looping, Percent [1, 7]: 10.2% | Tubular heart, Frequency [1, 7]: 3 | Tubular heart, Percent [1, 7]: 2.8% | Very abnormal (or no hearts), Frequency [1, 7]: 18 | Very abnormal (or no hearts), Percent [1, 7]: 16.7% | Wide heart, Frequency [1, 7]: 24 | Wide heart, Percent [1, 7]: 22.2% | development after exposure at HH stages 6 and 7 ([1]; in vivo): normal development | Body Weight ([4]; E15.5 after exposure on E6.75): 0.35 g | CRL ([4]; E15.5 after exposure on E6.75): 13 mm | Placenta Weight ([4]; E15.5 after exposure on E6.75): 0.11 g | embryonic lethality ([4]; acute single dose of HCy at E5.5): 79% | Resorptions (embryos/total) ([4]; exposure on E6.75): 27/59 | Resorptions (percent) ([4]; exposure on E6.75): 46% | Resorptions (percent) ([4]; exposure on E6.75, listed as HCys): 45.7% | placental weight, crown-rump length and body weight versus control embryos ([4]; single exposure on E6.75, E15.5): significantly decreased

From patent US9308210B2, “Method for modulating canonical Wnt pathway using folate and inositol” (University of South Florida, priority 2009, dated 2016)
